One data set concerns the target T1, P450 1A2 (Homo sapiens, UniProt P05177).
T1 sequence (P05177 1-516): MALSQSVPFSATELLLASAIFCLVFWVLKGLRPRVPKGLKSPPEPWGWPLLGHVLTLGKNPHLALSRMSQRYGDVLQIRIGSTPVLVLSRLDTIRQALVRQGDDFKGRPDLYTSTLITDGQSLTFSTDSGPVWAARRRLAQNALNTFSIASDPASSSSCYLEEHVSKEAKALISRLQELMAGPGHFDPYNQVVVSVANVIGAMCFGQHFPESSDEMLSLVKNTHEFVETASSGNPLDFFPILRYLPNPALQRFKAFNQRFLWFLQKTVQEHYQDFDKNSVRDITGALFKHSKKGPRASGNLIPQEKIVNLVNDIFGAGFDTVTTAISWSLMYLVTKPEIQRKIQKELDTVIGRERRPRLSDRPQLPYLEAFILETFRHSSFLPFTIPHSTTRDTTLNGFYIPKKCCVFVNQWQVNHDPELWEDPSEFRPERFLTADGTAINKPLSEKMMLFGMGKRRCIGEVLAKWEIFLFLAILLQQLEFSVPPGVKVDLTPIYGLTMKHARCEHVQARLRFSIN
In words: Human liver microsomes, caffeine N3-demethylation. The data set is classed as biochemical. As to conditions: pooled microsomes, 100 μM caffeine. Here is the method: (§1) Human liver tissues were obtained from the University of Chicago Distribution Center of […] (Liver Transplant Procurement and Distribution Service, University of Minnesota, Minneapolis, Minn.), Human Biologics Inc. (Phoenix, Ariz.) and the International Institute for the Advancement of Science (Exton, Pa.). The liver microsomes were prepared by differential centrifugation. Caffeine N3-demethylation (Tassaneeyakul W., Mohammed […]., Veronese M. E., Tukey R. H., Quattrochi […]., and Miners J. O. Caffeine as a probe for human cytochromes P450: Validation using cDNA-expression,immunoinhibition, and microsomal kinetic and inhibitor techniques. Pharmacogenetics, 1992;2:173-183), coumarin 7-hydroxylation ([…]. Metabolism of coumarin by rat, gerbil, and human liver microsomes. Xenobiotica, 1992;22:357-367), tolbutamide hydroxylation (Miners J. O., Smith K. J., Robson […]., Veronese M. E., and Birkett D. J. Tolbutamide hydroxylation by human liver microsomes: Kinetic characterization and relationship to other cytochrome P-450 dependent xenobiotic oxidations. Biochem. Pharmacol., 1988;37:1137-1144), racemic bufurolol 1'-hydroxylation ([…]., Gut […]., and Meyer U. A. […] Anal. […] S. Hydroxylation of chlorzoxazone as a specific probe for human liver cytochrome P-450 IIEI. Chem. Res. […] The reactions were initiated by the additions of 1 mM NADPH and terminated in ice. […]
On the technique in general: Liver microsomes are a subcellular fraction often used to study metabolism.

Data set [1] deals with T2, P450 3A4 (Homo sapiens, UniProt P08684). In words: Human liver microsomes, testosterone 6β-hydroxylation. The format is biochemical. As to conditions: pooled human liver microsomes. The protocol:
(§2) Human liver tissues were obtained from the University of Chicago Distribution Center of […] (Liver Transplant Procurement and Distribution Service, University of Minnesota, Minneapolis, Minn.), Human Biologics Inc. (Phoenix, Ariz.) and the International Institute for the Advancement of Science (Exton, Pa.). The liver microsomes were prepared by differential centrifugation. […] Anal. […] S. Hydroxylation of chlorzoxazone as a specific probe for human liver cytochrome P-450 IIEI. Chem. Res. […] The reactions were initiated by the additions of 1 mM NADPH and terminated in ice. […] A. Assay of mephenytoin metabolism in human liver microsomes by high-performance liquid chromatography. […] Experimental controls consisted of the complete incubation components without the addition of BG.
Target sequence in this assay (P08684 whole entry): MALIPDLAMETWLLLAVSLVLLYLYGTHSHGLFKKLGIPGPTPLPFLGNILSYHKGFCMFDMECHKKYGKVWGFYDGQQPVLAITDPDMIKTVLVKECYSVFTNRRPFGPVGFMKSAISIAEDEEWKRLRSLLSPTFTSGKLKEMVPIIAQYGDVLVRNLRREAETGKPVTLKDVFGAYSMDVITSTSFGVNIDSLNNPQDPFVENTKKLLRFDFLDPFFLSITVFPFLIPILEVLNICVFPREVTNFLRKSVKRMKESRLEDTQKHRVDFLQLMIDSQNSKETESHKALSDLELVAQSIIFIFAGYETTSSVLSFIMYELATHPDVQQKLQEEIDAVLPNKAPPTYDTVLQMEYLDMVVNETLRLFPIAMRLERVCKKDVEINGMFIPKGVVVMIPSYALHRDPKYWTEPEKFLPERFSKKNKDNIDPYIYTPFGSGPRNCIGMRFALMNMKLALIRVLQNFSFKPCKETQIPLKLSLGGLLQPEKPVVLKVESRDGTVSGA

In data set [2] the target is T2, P450 3A4. In words: HPLC analysis of BG-inactivated P450 3A4 on a Poros column. On the set-up: A full-length P450 3A4 cDNA (except for the deletion of codons 3-12 at the 5′-end); made in house; host or cells: E. coli MV1304 (pCW vector). The data set is classed as biochemical. An excerpt: S., Hopkins N. E., Alworth D. A., and Hollenberg P. F. […] The eluate was monitored by UV detection at […], 310, and 405 nm simultaneously.
Target sequence in this assay (P08684 with tags, fused parts or gaps): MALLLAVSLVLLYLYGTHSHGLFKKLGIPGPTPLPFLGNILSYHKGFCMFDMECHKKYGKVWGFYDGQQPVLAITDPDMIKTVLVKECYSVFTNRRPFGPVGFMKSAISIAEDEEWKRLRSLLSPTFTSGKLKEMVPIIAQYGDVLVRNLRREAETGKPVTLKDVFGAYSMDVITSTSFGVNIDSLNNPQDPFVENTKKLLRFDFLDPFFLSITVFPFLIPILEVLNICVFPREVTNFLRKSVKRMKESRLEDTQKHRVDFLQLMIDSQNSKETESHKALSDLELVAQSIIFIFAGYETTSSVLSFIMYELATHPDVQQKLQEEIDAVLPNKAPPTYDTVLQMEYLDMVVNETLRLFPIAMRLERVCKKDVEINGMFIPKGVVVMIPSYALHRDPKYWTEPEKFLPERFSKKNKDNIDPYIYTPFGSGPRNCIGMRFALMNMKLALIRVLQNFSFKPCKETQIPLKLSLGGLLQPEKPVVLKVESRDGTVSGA

Data set [3] addresses T2, P450 3A4. Kind of data set: P450 content by reduced-CO difference spectrum after incubation in the reconstituted system. The data set is classed as biochemical. Also noted: A full-length P450 3A4 cDNA (except for the deletion of codons 3-12 at the 5′-end); made in house; host or cells: E. coli MV1304 (pCW vector). The settings on record: 50 μM BG, 15 minutes; for P450: 37° C. Here is the method:
Reactions with various concentrations of BG were initiated by addition of 1 mM NADPH, and terminated on ice. The incubations were performed at 37° C. for the time periods indicated. […] The spectra were recorded between 330 to 700 nm against the diluting buffer as reference on a […] spectrophotometer in the split beam mode.
Target sequence in this assay (P08684 with tags, fused parts or gaps): as above

Another data set deals with T3, P450 2C19 (Homo sapiens, UniProt P33261).
T3 construct: incubated with pooled human liver microsomes; from tissue; host or cells: pooled human liver microsomes
In words: Human liver microsomes, (S)-mephenytoin 4′-hydroxylation. As to conditions: pooled human liver microsomes, probe (S)-mephenytoin (50 μM), read-out: P450 2C19 activity inhibited. The format is biochemical. The protocol: as §1

In a further data set the target is T4, P450 2D6 (Homo sapiens, UniProt P10635).
T4 construct: Pooled human liver microsomes; from tissue; host or cells: human liver microsomes, pool of 6
Kind of data set: Human liver microsomes, racemic bufurolol 1′-hydroxylation. The data set is classed as biochemical. As to conditions: pooled human liver microsomes. Here is the method: as §1

In the next data set the target is T5, P450 2C9 (Homo sapiens, UniProt P11712).
T5 construct: Pooled human liver microsomes; from tissue; host or cells: human liver microsomes, pool of 6
In words: Human liver microsomes, tolbutamide hydroxylation. The format is biochemical. The settings on record: pooled human liver microsomes. The protocol:
as §2

The target of data set [4] is T2, P450 3A4. Kind of data set: BG-mediated inactivation of P450 3A4 in a reconstituted system, testosterone 6β-hydroxylation activity.
Target sequence in this assay (P08684 with tags, fused parts or gaps): as above
In the next data set the target is T6, P450 2A6 (Homo sapiens, UniProt P11509).
T6 construct: Pooled human liver microsomes; from tissue; host or cells: human liver microsomes, pool of 6
T6 sequence (P11509 1-494): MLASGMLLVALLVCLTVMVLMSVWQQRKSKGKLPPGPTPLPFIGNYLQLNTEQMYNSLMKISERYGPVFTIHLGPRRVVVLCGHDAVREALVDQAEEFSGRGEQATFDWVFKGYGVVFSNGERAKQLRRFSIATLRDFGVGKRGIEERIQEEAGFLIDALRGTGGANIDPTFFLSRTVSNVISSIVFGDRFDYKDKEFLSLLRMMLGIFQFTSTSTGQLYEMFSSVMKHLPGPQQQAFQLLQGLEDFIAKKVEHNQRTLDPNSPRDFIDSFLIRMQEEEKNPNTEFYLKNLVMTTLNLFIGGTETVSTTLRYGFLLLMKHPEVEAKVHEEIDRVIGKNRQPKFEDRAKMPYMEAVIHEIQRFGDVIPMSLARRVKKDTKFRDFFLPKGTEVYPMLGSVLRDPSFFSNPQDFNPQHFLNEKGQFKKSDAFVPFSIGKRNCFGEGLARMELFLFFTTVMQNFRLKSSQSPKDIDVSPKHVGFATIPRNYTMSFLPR
Kind of data set: Human liver microsomes, coumarin 7-hydroxylation. The format is biochemical. As to conditions: pooled microsomes, 4 μM coumarin. The protocol: as §1

The next data set addresses T7, P450 2E1 (Homo sapiens, UniProt P05181).
T7 construct: Pooled human liver microsomes; from tissue; host or cells: human liver microsomes, pool of 6
In words: Human liver microsomes, chlorzoxazone 6-hydroxylation. The data set is classed as biochemical. As to conditions: pooled human liver microsomes. The protocol:
as §1

[5] abbreviates: human, pH 7.5, probe testosterone (200 μM), 6β-hydroxylation.

The structures appear in SMILES notation.

One may read the IC50 as the concentration at which inhibition is half-maximal.

T3 sequence (P33261 whole entry): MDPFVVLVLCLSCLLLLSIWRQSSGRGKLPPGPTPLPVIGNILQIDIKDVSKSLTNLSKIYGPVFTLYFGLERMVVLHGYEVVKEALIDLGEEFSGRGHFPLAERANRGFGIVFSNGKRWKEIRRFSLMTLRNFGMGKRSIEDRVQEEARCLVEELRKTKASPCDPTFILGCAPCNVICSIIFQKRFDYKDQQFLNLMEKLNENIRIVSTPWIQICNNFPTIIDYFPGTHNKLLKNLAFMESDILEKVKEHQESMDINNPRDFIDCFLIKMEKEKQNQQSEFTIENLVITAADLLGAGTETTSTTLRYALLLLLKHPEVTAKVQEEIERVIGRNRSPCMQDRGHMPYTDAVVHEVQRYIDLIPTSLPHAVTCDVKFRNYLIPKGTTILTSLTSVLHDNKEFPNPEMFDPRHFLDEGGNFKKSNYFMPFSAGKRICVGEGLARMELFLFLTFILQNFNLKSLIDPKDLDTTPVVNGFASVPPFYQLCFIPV
T4 sequence (P10635 whole entry): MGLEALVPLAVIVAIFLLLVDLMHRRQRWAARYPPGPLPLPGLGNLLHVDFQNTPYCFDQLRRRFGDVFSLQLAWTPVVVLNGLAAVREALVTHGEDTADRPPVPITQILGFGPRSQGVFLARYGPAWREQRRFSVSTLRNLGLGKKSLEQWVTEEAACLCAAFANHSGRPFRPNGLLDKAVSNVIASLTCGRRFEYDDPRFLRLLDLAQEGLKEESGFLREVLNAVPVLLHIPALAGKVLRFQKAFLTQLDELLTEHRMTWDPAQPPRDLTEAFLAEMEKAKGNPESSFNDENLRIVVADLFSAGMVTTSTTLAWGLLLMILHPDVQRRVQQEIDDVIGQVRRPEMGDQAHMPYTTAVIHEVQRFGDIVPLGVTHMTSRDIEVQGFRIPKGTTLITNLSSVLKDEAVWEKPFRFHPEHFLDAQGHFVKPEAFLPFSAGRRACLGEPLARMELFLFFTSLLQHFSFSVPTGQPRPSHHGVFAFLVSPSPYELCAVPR
T7 sequence (P05181 whole entry): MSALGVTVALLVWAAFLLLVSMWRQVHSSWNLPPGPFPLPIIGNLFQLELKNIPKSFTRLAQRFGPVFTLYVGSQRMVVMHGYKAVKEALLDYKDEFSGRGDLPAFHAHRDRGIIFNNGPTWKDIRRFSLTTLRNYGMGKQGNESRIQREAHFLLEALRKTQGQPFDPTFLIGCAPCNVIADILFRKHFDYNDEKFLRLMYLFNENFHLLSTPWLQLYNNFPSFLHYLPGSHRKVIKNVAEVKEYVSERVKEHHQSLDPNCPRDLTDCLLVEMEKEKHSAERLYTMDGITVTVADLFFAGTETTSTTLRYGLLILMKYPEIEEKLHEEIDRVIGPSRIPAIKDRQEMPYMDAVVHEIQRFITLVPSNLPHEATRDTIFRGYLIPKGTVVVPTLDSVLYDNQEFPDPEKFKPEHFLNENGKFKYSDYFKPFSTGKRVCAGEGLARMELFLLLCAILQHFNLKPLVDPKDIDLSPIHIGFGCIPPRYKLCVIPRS
T5 sequence (P11712 whole entry): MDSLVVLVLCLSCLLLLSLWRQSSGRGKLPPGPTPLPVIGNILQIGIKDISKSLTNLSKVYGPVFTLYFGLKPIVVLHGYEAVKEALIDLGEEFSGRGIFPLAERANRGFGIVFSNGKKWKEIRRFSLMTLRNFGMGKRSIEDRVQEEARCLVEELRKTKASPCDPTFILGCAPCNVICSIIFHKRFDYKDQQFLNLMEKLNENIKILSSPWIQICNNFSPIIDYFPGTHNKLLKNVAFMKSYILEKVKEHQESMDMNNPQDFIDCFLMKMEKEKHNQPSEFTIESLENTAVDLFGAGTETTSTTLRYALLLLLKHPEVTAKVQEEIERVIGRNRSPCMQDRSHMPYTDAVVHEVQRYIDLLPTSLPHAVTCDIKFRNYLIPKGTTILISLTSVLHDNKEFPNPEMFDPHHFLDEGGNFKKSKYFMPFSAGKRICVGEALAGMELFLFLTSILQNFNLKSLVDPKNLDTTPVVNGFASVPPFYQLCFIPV

Take `CC(C)=CCC/C(C)=C/COc1c2ccoc2cc2oc(=O)ccc12` [BG, (E)-4-[(3,7-dimethyl-2,6-octadienyl)oxy]-7H-furo[3,2-g][1]benzopyran-7-one]: the “P450 1A2 activity in human liver microsomes” value on P450 1A2 was “inhibited”. Also, the IC50 is approximately 4.6 µM at P450 3A4 [1], approximately 3 µM on P450 2D6, approximately 2.4 µM against P450 2C9 and approximately 3.9 µM on P450 2E1. Also, the “decrease of the amount of apoP450 3A4” value at P450 3A4 [2] (50 μM BG, reverse phase HPLC, vs −NADPH control) is reported as “about 50%”. Besides, on P450 3A4 [2] (BG inactivated P450 3A4 sample), the heme recovered result was “Approximately 90%”. Besides, the “reductase and cytochrome b5 protein recovered from the column” value at P450 3A4 [2] (compared with −NADPH controls) is given as approximately 100%. Also, the “decrease of P450 content (reduced-CO spectrum)” value at P450 3A4 [3] (with NADPH) is “approximately 40%”. Moreover, the P450 turned out to be 0.27 nmol/mL on P450 3A4 [3] (BG+/NADPH+) and 0.47 nmol/mL at P450 3A4 [3] (BG+/NADPH−). Moreover, at P450 2C19 (2 μM BG), the inhibition at 2 μM was approximately 71%. In addition, the inhibition at 20 μM on P450 2C19 (20 μM BG) was approximately 100%. The “inactivation of testosterone 6β-hydroxylation activity” value at P450 3A4 [4] (2 μM BG with α-naphathoflavone 6 to 50 μM) is “about 55%”. The “loss of testosterone 6β-hydroxylation activity” value on P450 3A4 [4] (50 μM BG, with NADPH, 37° C., 15 minutes) is reported as 90%. The “Testosterone 6β-hydroxylation” value at P450 3A4 [4] (BG+/NADPH+, 50 μM BG, 37° C., 15 minutes) is on record as 0.8 nmol/min/nmol; on P450 3A4 [4] (BG+/NADPH−, 50 μM BG, 37° C., 15 minutes) it was 2.9 nmol/min/nmol. The compound also gave a KI (inactivation) on P450 3A4 [4] (setting [5]) of 7.7 µM. The inhibition at 50 μM against P450 3A4 [4] (setting [5]) is approximately 60%. Also, the inhibition at […] at P450 3A4 [4] (setting [5]) is approximately 55%. The kinact on P450 3A4 [4] (read-out: Kinactivation (maximal rate constant of inactivation)) is 0.005 s⁻¹. In addition, on P450 3A4 [4] (reconstituted system), the “Kinactivation (maximal rate constant of inactivation)” value was determined as 0.3 min⁻¹. Besides, at P450 2A6, the “P450 2A6 activity in human liver microsomes” value is “inhibited”.

For the origin of these results see patent publication US6509371B1, “Compositions containing Bergamottin for increasing the oral bioavailability of pharmaceutical agents” (Warner-Lambert Company, priority 1997, dated 2003).
